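Grown in 96-well plates, cells were treated for 48 hours with each compound at five concentrations. Insufficient inhibition: endpoint recorded as highest concentration tested. At the GI50, growth is halved. TGI is the concentration that stops growth completely.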
Key:
Assay in all cases: NCI-60 cell line screen, 48 h
A498 renal = tested on: A498 renal
ACHN renal = tested on: ACHN renal
HCT-15 colon = tested on: HCT-15 colon
M14 melanoma = tested on: M14 melanoma
NCI/ADR-RES ovarian = tested on: NCI/ADR-RES ovarian
OVCAR-5 ovarian = tested on: OVCAR-5 ovarian
OVCAR-8 ovarian = tested on: OVCAR-8 ovarian
SF-539 CNS = tested on: SF-539 CNS
SNB-75 CNS = tested on: SNB-75 CNS
UACC-62 melanoma = tested on: UACC-62 melanoma

Row | Compound | GI50 (A498 renal) [µM] | TGI (A498 renal) [µM] | GI50 (ACHN renal) [µM] | TGI (ACHN renal) [µM] | GI50 (HCT-15 colon) [µM] | TGI (HCT-15 colon) [µM] | GI50 (M14 melanoma) [µM] | TGI (M14 melanoma) [µM] | GI50 (NCI/ADR-RES ovarian) [µM] | TGI (NCI/ADR-RES ovarian) [µM] | GI50 (OVCAR-5 ovarian) [µM] | TGI (OVCAR-5 ovarian) [µM] | GI50 (OVCAR-8 ovarian) [µM] | TGI (OVCAR-8 ovarian) [µM] | GI50 (SF-539 CNS) [µM] | TGI (SF-539 CNS) [µM] | GI50 (SNB-75 CNS) [µM] | TGI (SNB-75 CNS) [µM] | GI50 (UACC-62 melanoma) [µM] | TGI (UACC-62 melanoma) [µM]
1 | Clc1ccc2[nH]cc(-c3nc(-c4c[nH]c5ncccc45)cs3)c2c1 | 2.08 | 10.4 | 2.82 | > 100 | 2.6 | 7.9 | 3.2 | 11.1 | 3.09 | 16.9 | 5.63 | 59.5 | 3.87 | 20.8 | 4.97 | 21.2 | 3.25 | 35.3 | 4 | 16.5
2 | COc1ccccc1NC(=O)n1nc(N)c2ccccc21 | > 68.7 | > 100 | > 81.7 | > 100 | 63.6 | > 100 | > 100 | > 100 | 87.4 | > 100 | > 100 | > 100 | > 78.3 | > 100 | 58.4 | > 100 | 37 | > 100 | > 100 | > 100
3 | CC1=C[C@H]2c3c(c(O)c(O)c4oc5ccccc5c(=O)c34)[C@H](c3cc(O)c(O)c4oc5ccccc5c(=O)c34)[C@H]2C(C)(C)C1 | 0.519 | 3.38 | 0.863 | 9.22 | 0.909 | 12.9 | 1.36 | 5.66 | 3.07 | 16.3 | 3.18 | 14.7 | 0.93 | 46.9 | 1.1 | 4.89 | 0.637 | 6.59 | 0.707 | 2.33
4 | O=[N+]([O-])c1ccc(N/N=C/c2c(O)ccc3ccccc23)nc1 | > 100 | > 100 | 0.775 | > 100 | 0.655 | > 100 | 16.4 | > 100 | 1.82 | > 100 | > 100 | > 100 | 5.78 | > 100 | 11.1 | > 100 | > 100 | > 100 | 9.82 | > 100
5 | CN(C)N1C(=O)c2ccccc2NC1c1ccccc1 (stereo not given) |  | > 100 |  | > 100 |  | > 100 |  | > 100 |  | > 100 |  | > 100 |  | > 100 |  | > 100 |  | > 100 |  | > 100
6 | CCOc1cc2c(NCCCN(CCO)CCO)ncnc2c(OCC)c1OCC |  | > 100 |  | > 100 |  | > 100 |  | > 100 |  | > 100 |  | > 100 |  | > 100 |  | > 100 |  | > 100 |  | > 100
7 | N=C(N=C(N)N)N1CCN(c2ccncc2)CC1 | 155 | > 1000 | > 1000 | > 1000 | > 1000 | > 1000 | > 1000 | > 1000 | > 1000 | > 1000 | > 1000 | > 1000 | 483 | > 1000 | > 1000 | > 1000 | > 1000 | > 1000 | > 1000 | > 1000
8 | O=C(NCCCNc1cc(-c2cn(-c3ccccc3)nc2-c2cccc(O)c2)ccn1)c1ccccc1 | 2.32 | 66.4 | 3.47 | > 100 | 1.51 | 5.12 | 2.56 | 6.72 | 2.67 | 9.79 | 3.93 | 75 | 4.45 | 37.7 | 3.02 | 10.3 | 1.68 | 46.9 | 3.15 | 12.2
9 | O=C1C=C(Br)C(=O)C12CCc1ccccc12 (stereo not given) |  | 24.1 |  | 24.7 |  | 19.7 |  | 19.3 |  | 81.3 |  | 33.3 |  | 64.6 |  | 35.6 |  | 29.5 |  | 32
